Molecules are shown by their SMILES. A value given as a limit tells only on which side of the number the result lay.

Assay [1] concerns the target T1, AHR (Homo sapiens, UniProt P35869).
T1 sequence (P35869 11-848): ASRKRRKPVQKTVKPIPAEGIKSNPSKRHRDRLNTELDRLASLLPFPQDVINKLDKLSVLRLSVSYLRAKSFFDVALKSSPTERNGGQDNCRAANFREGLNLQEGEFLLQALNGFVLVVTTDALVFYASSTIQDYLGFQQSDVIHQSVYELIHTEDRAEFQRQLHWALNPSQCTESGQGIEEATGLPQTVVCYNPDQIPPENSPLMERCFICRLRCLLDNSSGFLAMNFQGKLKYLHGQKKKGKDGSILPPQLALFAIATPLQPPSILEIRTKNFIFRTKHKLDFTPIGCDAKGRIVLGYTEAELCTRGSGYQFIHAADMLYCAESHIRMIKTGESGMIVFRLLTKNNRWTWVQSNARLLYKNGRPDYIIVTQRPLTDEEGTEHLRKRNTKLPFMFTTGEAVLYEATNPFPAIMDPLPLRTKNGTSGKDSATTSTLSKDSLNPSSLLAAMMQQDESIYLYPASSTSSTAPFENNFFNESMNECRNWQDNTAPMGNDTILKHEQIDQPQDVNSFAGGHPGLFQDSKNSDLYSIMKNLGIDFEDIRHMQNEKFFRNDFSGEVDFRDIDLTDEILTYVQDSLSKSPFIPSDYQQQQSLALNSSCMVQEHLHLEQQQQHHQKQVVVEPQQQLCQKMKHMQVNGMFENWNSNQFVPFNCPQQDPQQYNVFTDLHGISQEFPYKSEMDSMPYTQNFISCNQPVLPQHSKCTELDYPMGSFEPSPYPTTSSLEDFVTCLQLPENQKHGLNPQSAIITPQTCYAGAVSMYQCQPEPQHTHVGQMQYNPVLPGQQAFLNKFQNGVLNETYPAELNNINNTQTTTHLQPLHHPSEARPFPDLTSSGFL
Briefly: In vitro assay 1: antagonism in human cell line (transactivation assay, U87 cells prestimulated with kynurenic acid, DRE firefly luciferase reporter). The format is cell-based. The settings on record: 150 uM kynurenic acid, 20 hours, read-out: Assay 1: AHR-luc Hum Antagonism IC50. Also noted: host or cells: U87 glioblastoma cells, stably transfected with DRE firefly luciferase and renilla reporter constructs. The method, boiled down:
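Antagonism measured after kynurenic acid prestimulation in U87 cells that express AHR endogenously and stably harbor a firefly luciferase gene under DRE control plus a constitutive renilla construct. Positive and negative controls served for normalization.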
(In a reporter assay the amount or activity of a reporter protein is the signal.)

Assay [2] has as its target T1, AHR. The assay is described as follows: In vitro assay 2: agonism in human cell line (transactivation assay, U87 cells, DRE firefly luciferase reporter). The format is cell-based. Also noted: host or cells: U87 glioblastoma cells, stably transfected with DRE firefly luciferase and renilla reporter constructs. The settings on record: no kynurenic acid, 20 hours, read-out: Assay 2: AHR-luc Hum Agonism IC50. An outline of the steps:
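Agonist readout: DRE firefly luciferase, with constitutive renilla reporter, in stably transfected U87 cells expressing AHR endogenously. Normalization used positive control (300 uM kynurenic acid) and negative control.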

By IC50 is commonly meant the concentration that inhibits the measured activity by half. Regarding `C[C@H](NC(=O)c1cc(-c2ccc(Cl)cc2)nn(-c2cnsc2)c1=O)C(C)(C)O` [Example 209, 6-(4-Chlorophenyl)-N-[(2S)-3-hydroxy-3-methylbutan-2-yl]-3-oxo-2-(1,2-thiazol-4-yl)-2,3-dihydropyridazine-4-carboxamide], the concentration for half-maximal inhibition (IC50) is 1.24 nM on AHR [1] and greater than 20000 nM on AHR [2].
`C[C@@H](NC(=O)c1cc(-c2ccc(Cl)cc2)nn(-c2cccnc2)c1=O)C(C)(C)O` [Example 302, 6-(4-Chlorophenyl)-N-[(2R)-3-hydroxy-3-methylbutan-2-yl]-3-oxo-2-(pyridin-3-yl)-2,3-dihydropyridazine-4-carboxamide]: the IC50 at AHR [1] was 81.5 nM; on AHR [2] it was greater than 20000 nM.
The like results for `C[C@@H](CO)NC(=O)c1cc(-c2ccc(Cl)cc2)nn(-c2cnn(C3CCC3)c2)c1=O` [Example 42, 6-(4-Chlorophenyl)-2-(1-cyclobutyl-1H-pyrazol-4-yl)-N-[(2S)-1-hydroxypropan-2-yl]-3-oxo-2,3-dihydropyridazine-4-carboxamide] were, in that order, 1570 nM and greater than 20000 nM.
On to `O=C(N[C@H]1CCC[C@H]1O)c1cc(-c2ccc(Cl)cc2)nn(-c2cncc(F)c2)c1=O` [Example 129, 6-(4-Chlorophenyl)-2-(5-fluoropyridin-3-yl)-N-[(1S,2R)-2-hydroxycyclopentyl]-3-oxo-2,3-dihydropyridazine-4-carboxamide], for which the IC50 on AHR [1] was 5.53 nM; at AHR [2] it was greater than 20000 nM.
The like results for `CC(C)(O)CNC(=O)c1cc(-c2ccc(C(F)(F)F)nc2)nn(-c2cncc(F)c2)c1=O` [Example 344, 2-(5-Fluoropyridin-3-yl)-N-(2-hydroxy-2-methylpropyl)-3-oxo-6-[6-(trifluoromethyl)pyridin-3-yl]-2,3-dihydropyridazine-4-carboxamide] were, in that order, 174 nM and greater than 20000 nM.
The like results for `C[C@H](CO)NC(=O)c1cc(-c2ccc(Cl)cc2)nn(-c2cncnc2)c1=O` [Example 279, 6-(4-Chlorophenyl)-N-[(2R)-1-hydroxypropan-2-yl]-3-oxo-2-(pyrimidin-5-yl)-2,3-dihydropyridazine-4-carboxamide] were, in that order, 168 nM and greater than 20000 nM.
Regarding `O=C(N[C@H]1CCCC(F)(F)[C@@H]1O)c1cc(-c2ccc(OC(F)(F)F)cc2)nn(-c2cccnc2)c1=O` (single isomer, unassigned; enantiomer 2) [Example 142, N-[(trans)-3,3-Difluoro-2-hydroxycyclohexyl]-3-oxo-2-(pyridin-3-yl)-6-[4-(trifluoromethoxy)phenyl]-2,3-dihydropyridazine-4-carboxamide, Enantiomer 2], the values for the IC50 at AHR [1] and at AHR [2] were 8.32 nM and greater than 20000 nM, respectively.
With `O=C(N[C@H](CO)C1CC1)c1cc(-c2ccc(C(F)(F)F)cc2)nn(-c2cnsc2)c1=O` [Example 207, N-[(1S)-1-Cyclopropyl-2-hydroxyethyl]-3-oxo-2-(1,2-thiazol-4-yl)-6-[4-(trifluoromethyl)phenyl]-2,3-dihydropyridazine-4-carboxamide], the IC50 on AHR [1] is 1.21 nM; at AHR [2], greater than 20000 nM.
Turning to `COC(=O)[C@@H](CO)NC(=O)c1cc(-c2ccc(Cl)cc2)nn(-c2cccnc2)c1=O` [Example 274, Methyl N-{[6-(4-chlorophenyl)-3-oxo-2-(pyridin-3-yl)-2,3-dihydropyridazine-4-yl]carbonyl}-D-serinate], the IC50 on AHR [1] was 111 nM; at AHR [2], greater than 20000 nM.
On to `O=C(N[C@@H]1CC[C@@H]1O)c1cc(-c2ccc(Cl)cc2)nn(-c2cccnc2)c1=O` (single isomer, unassigned) [Example 249, (+)-6-(4-Chlorophenyl)-N-cis-2-hydroxycyclo-butyl-3-oxo-2-(pyridin-3-yl)-2,3-dihydropyridazine-4-carboxamide], for which the IC50 on AHR [1] was 15.3 nM; on AHR [2], greater than 20000 nM.
As for `O=C(N[C@H](CO)C(F)(F)F)c1cc(-c2ccc(Cl)cc2)nn(-c2cnsc2)c1=O` [Example 198, 6-(4-Chlorophenyl)-3-oxo-2-(1,2-thiazol-4-yl)-N-[(2R)-1,1,1-trifluoro-3-hydroxypropan-2-yl]-2,3-dihydropyridazine-4-carboxamide], the IC50 on AHR [1] is 0.599 nM; on AHR [2] it was greater than 20000 nM.
For `O=C(NC[C@H](O)CF)c1cc(-c2ccc(OC(F)(F)F)cc2)nn(-c2cccnc2)c1=O` [Example 296, N-[(2S)-3-Fluoro-2-hydroxypropyl]-3-oxo-2-(pyridin-3-yl)-6-[4-(trifluoromethoxy)phenyl]-2,3-dihydropyridazine-4-carboxamide] the same measures were 118 nM and greater than 20000 nM.
The like results for `C[C@@H](CO)NC(=O)c1cc(-c2ccc(OC(F)F)cc2)nn(-c2cccnc2)c1=O` [Example 332, 6-[4-(Difluoromethoxy)phenyl]-N-[(2S)-1-hydroxypropan-2-yl]-3-oxo-2-(pyridin-3-yl)-2,3-dihydropyridazine-4-carboxamide] were, in that order, 94.5 nM and greater than 20000 nM.
Turning to `Cn1cc(-n2nc(-c3ccc(C(F)F)cc3)cc(C(=O)N[C@H]3CCC[C@@H]3O)c2=O)cn1` (relative stereo) [Example 52, 6-[4-(Difluoromethyl)phenyl]-N-[(trans)-2-hydroxycyclopentyl]-2-(1-methyl-1H-pyrazol-4-yl)-3-oxo-2,3-dihydropyridazine-4-carboxamide], the IC50 on AHR [1] is 11.5 nM; on AHR [2], greater than 20000 nM.
The like results for `O=C(N[C@H]1CCCC[C@H]1O)c1cc(-c2ccc(Cl)cc2)nn(-c2ccnnc2)c1=O` [Example 164, 3-(4-Chlorophenyl)-N-[(1S,2R)-2-hydroxycyclohexyl]-6-oxo-6H-1,4′-bipyridazine-5-carboxamide] were, in that order, 157 nM and greater than 20000 nM.
For `CC(C)(O)C(NC(=O)c1cc(-c2ccc(OC(F)(F)F)cc2)nn(-c2cccnc2)c1=O)C(F)(F)F` (single isomer, unassigned; enantiomer 2) [Example 137, 3-Oxo-2-(pyridin-3-yl)-N-[1,1,1-trifluoro-3-hydroxy-3-methylbutan-2-yl]-6-[4-(trifluoromethoxy)phenyl]-2,3-dihydropyridazine-4-carboxamide, Enantiomer 2] the same measures were 4.23 nM and greater than 20000 nM.
Take `Cn1cc(-n2nc(-c3ccc(C(F)F)cc3)cc(C(=O)N[C@@H]3COC[C@@H]3O)c2=O)cn1` (relative stereo) [Example 60, 6-[4-(Difluoromethyl)phenyl]-N-[(cis)-4-hydroxytetrahydrofuran-3-yl]-2-(1-methyl-1H-pyrazol-4-yl)-3-oxo-2,3-dihydropyridazine-4-carboxamide]: the IC50 at AHR [1] was 21.8 nM; at AHR [2], greater than 20000 nM.
Take `O=C(NC(CO)CO)c1cc(-c2ccc(C(F)(F)F)cc2)nn(-c2cccnc2)c1=O` [Example 116, N-(1,3-Dihydroxypropan-2-yl)-3-oxo-2-(pyridin-3-yl)-6-[4-(trifluoromethyl)phenyl]-2,3-dihydropyridazine-4-carboxamide]: the IC50 was 115 nM at AHR [1] and greater than 20000 nM on AHR [2].
With `Cn1cc(-n2nc(-c3ccc(OC(F)F)cc3)cc(C(=O)NC(C(C)(C)O)C(F)(F)F)c2=O)cn1` (stereo not drawn) [Example 305, 6-[4-(Difluoromethoxy)phenyl]-2-(1-methyl-1H-pyrazol-4-yl)-3-oxo-N-(1,1,1-trifluoro-3-hydroxy-3-methylbutan-2-yl)-2,3-dihydropyridazine-4-carboxamide], the IC50 on AHR [1] was 1.64 nM; on AHR [2], greater than 20000 nM.
Take `N#C[C@@H](CO)NC(=O)c1cc(-c2ccc(Cl)cc2)nn(-c2cccnc2)c1=O` [Example 254, 6-(4-Chlorophenyl)-N-[(1S)-1-cyano-2-hydroxyethyl]-3-oxo-2-(pyridin-3-yl)-2,3-dihydropyridazine-4-carboxamide]: the results for the IC50 at AHR [1] and at AHR [2] were 22.9 nM and greater than 20000 nM, respectively.
`O=C(N[C@H]1CCCC(F)(F)[C@@H]1O)c1cc(-c2ccc(Cl)cc2)nn(-c2cccnc2)c1=O` (single isomer, unassigned; enantiomer 1) [Example 144, 6-(4-Chlorophenyl)-N-[(trans)-3,3-difluoro-2-hydroxycyclohexyl]-3-oxo-2-(pyridin-3-yl)-2,3-dihydropyridazine-4-carboxamide, Enantiomer 1]: the IC50 was 31.4 nM at AHR [1] and greater than 20000 nM at AHR [2].

The values above are taken from patent US12522594B2, “2-heteroaryl-3-oxo-2,3-dihydropyridazine-4-carboxamides for the treatment of cancer” (Deutsches Krebsforschungszentrum, priority 2017, dated 2026).
